From US8697739B2, “Bicyclic acetyl-CoA carboxylase inhibitors and uses thereof” (Novartis AG, priority 2010, dated 2014) come the findings set out here.

The term IC50 denotes the concentration that inhibits the measured activity by half.

In the assay the target is T1, human acetyl-CoA carboxylase 2 (ACC2) (Homo sapiens, UniProt O00763).
T1 construct: The cDNA encoding amino acids 144 to 2458 of human acetyl-CoA carboxylase 2; made in house; host or cells: Sf9 insect cells (baculovirus, pFastBac1)
T1 sequence (O00763 144-2458): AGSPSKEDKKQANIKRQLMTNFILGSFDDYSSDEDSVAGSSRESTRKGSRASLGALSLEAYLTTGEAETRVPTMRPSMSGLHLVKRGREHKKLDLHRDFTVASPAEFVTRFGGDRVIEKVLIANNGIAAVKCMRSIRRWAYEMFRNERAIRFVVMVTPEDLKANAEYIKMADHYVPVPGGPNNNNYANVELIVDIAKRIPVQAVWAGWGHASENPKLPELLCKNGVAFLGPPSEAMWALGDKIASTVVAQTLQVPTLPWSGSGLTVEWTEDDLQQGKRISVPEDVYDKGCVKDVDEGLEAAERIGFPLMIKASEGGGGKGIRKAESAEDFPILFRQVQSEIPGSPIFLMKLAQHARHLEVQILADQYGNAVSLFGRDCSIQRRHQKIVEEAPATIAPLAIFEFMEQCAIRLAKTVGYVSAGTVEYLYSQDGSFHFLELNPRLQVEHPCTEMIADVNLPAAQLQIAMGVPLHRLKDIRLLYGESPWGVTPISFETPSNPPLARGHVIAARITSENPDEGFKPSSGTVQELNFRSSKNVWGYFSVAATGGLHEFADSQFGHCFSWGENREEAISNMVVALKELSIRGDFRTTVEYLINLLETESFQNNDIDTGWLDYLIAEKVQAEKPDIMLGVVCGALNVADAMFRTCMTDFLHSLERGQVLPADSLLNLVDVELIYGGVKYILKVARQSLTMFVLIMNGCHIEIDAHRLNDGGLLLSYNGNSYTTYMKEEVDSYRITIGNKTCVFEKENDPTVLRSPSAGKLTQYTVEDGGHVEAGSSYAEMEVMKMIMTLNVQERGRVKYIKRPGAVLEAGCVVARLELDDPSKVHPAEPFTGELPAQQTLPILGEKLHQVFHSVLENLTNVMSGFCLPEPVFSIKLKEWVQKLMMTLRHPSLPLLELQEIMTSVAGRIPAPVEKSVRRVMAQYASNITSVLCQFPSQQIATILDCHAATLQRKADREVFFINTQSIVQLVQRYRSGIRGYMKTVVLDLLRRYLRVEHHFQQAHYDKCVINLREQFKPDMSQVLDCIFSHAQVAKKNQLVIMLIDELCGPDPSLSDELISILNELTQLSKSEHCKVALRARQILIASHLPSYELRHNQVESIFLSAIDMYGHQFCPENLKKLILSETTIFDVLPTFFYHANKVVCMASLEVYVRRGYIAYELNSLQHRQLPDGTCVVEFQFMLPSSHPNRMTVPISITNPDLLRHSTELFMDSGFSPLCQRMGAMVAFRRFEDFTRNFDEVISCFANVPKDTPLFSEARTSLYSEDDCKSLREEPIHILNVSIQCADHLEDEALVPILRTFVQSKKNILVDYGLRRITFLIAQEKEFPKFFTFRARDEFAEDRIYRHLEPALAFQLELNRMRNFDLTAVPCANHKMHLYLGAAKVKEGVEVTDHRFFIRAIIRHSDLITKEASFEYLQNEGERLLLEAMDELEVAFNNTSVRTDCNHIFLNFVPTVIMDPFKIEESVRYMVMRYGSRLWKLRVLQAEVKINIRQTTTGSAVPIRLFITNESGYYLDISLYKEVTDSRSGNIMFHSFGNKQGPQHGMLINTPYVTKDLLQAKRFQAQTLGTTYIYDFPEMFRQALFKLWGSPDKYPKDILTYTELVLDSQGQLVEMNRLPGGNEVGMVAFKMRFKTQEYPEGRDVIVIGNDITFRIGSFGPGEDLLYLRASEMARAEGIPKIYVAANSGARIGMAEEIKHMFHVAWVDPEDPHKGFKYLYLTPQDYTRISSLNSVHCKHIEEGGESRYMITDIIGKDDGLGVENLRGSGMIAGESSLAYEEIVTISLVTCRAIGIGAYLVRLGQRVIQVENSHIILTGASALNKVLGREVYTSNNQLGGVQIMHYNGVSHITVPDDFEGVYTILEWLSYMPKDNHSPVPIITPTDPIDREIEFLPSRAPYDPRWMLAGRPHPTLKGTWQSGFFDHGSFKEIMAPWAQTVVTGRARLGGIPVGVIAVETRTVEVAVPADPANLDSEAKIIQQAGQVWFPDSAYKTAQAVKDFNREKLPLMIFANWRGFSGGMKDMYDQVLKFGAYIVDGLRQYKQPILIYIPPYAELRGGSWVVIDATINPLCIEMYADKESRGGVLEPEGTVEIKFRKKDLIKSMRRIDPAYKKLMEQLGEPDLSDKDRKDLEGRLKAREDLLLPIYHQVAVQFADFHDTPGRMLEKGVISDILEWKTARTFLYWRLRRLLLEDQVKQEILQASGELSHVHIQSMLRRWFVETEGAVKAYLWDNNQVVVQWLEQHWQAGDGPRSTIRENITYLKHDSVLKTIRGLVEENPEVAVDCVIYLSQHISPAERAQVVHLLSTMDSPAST
The assay is described as follows: Acetyl-CoA carboxylase enzyme assay (malonyl-CoA formation by LC/MS/MS). Format: biochemical. The following applies: recombinant human ACC2 (aa 144-2458); read-out: IC50 ACC2. Summed up: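 Malonyl-CoA formation was read by LC/MS/MS MRM against a [13C3]-malonyl-CoA internal standard, after acetic acid quench. The enzyme was baculovirus/Sf9-expressed human ACC2 residues 144–2458, given 15 minutes room-temperature compound preincubation in HEPES pH 7.5 buffer with MgCl2, citrate and DTT. Substrate solution held 50 μM acetyl-CoA, 120 μM ATP and 2 mM KHCO3.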
In the case of `COc1ccc(-c2cc3ccc(S(=O)(=O)N[C@H]4CC[C@H](C(=O)N[C@@H](CO)C5CC5)CC4)cc3n2C)cc1` [Example 445, (1r,4R)-N-((R)-1-cyclopropyl-2-hydroxyethyl)-4-(2-(4-methoxyphenyl)-1-methyl-1H-indole-6-sulfonamido)cyclohexanecarboxamide], the IC50 came out at 15 nM.

`Cn1c(C2CC2)cc2ccc(S(=O)(=O)N[C@H]3CC[C@H](C(=O)N[C@@H](CO)C4CC4)CC3)cc21` [Example 446, (1r,4R)-4-(2-cyclopropyl-1-methyl-1H-indole-6-sulfonamido)-N-((R)-1-cyclopropyl-2-hydroxyethyl)cyclohexanecarboxamide]: the IC50 came to 365 nM.

Turning to `COCCOc1ccc(-c2cc3ccc(S(=O)(=O)N[C@H]4CC[C@H](C(=O)N5CCOC[C@@H]5C(C)C)CC4)cc3n2C)cc1` [Example 447, N-((1S,4r)-4-((S)-3-isopropylmorpholine-4-carbonyl)cyclohexyl)-2-(4-(2-methoxyethoxy)phenyl)-1-methyl-1H-indole-6-sulfonamide], the IC50 was found to be 25 nM.

With `COCCOc1ccc(-c2cc3ccc(S(=O)(=O)N[C@H]4CC[C@H](C(=O)N5CCOC[C@@H]5C)CC4)cc3n2C)cc1` [Example 448, 2-(4-(2-methoxyethoxy)phenyl)-1-methyl-N-((1S,4r)-4-((S)-3-methylmorpholine-4-carbonyl)cyclohexyl)-1H-indole-6-sulfonamide], the 50% inhibitory concentration (IC50) was 65 nM.

On to `COCCOc1ccc(-c2cc3ccc(S(=O)(=O)N[C@H]4CC[C@H](C(=O)N[C@H](CO)C5CC5)CC4)cc3n2C)cc1` [Example 449, (1r,4S)-N-((S)-1-cyclopropyl-2-hydroxyethyl)-4-(2-(4-(2-methoxyethoxy)phenyl)-1-methyl-1H-indole-6-sulfonamido)cyclohexanecarboxamide], for which the IC50 came out at 75 nM.

Regarding `COCCOc1ccc(-c2cc3ccc(S(=O)(=O)N[C@H]4CC[C@H](C(=O)N5CCOC(C)(C)C5)CC4)cc3n2C)cc1` [Example 450, N-((1r,4r)-4-(2,2-dimethylmorpholine-4-carbonyl)cyclohexyl)-2-(4-(2-methoxyethoxy)phenyl)-1-methyl-1H-indole-6-sulfonamide], the IC50 was found to be 130 nM.

With `COCCOc1ccc(-c2cc3ccc(S(=O)(=O)N[C@H]4CC[C@H](C(=O)N5CCC[C@@H]5C(C)(C)O)CC4)cc3n2C)cc1` [Example 451, N-((1R,4r)-4-((R)-2-(2-hydroxypropan-2-yl)pyrrolidine-1-carbonyl)cyclohexyl)-2-(4-(2-methoxyethoxy)phenyl)-1-methyl-1H-indole-6-sulfonamide], the IC50 worked out at 80 nM.

For `COCCOc1ccc(-c2cc3ccc(S(=O)(=O)N[C@H]4CC[C@H](C(=O)N[C@H](C)c5ccc(F)cc5)CC4)cc3n2C)cc1` [Example 452, (1r,4R)-N-((R)-1-(4-fluorophenyl)ethyl)-4-(2-(4-(2-methoxyethoxy)phenyl)-1-methyl-1H-indole-6-sulfonamido)cyclohexanecarboxamide], the IC50 turned out to be 10 nM.

Turning to `COCCOc1ccc(-c2cc3ccc(S(=O)(=O)N[C@H]4CC[C@H](C(=O)N[C@H](C)C(F)(F)F)CC4)cc3n2C)cc1` [Example 453, (1r,4R)-4-(2-(4-(2-methoxyethoxy)phenyl)-1-methyl-1H-indole-6-sulfonamido)-N-((R)-1,1,1-trifluoropropan-2-yl)cyclohexanecarboxamide], the half-maximal inhibitory concentration (IC50) amounted to 165 nM.

Consider `COc1ccc(-c2cc3ccc(S(=O)(=O)N[C@H]4CC[C@H](C(=O)N5CCOC[C@@H]5C5CC5)CC4)cc3n2C)cc1` [Example 454, N-((1S,4r)-4-((S)-3-cyclopropylmorpholine-4-carbonyl)cyclohexyl)-2-(4-methoxyphenyl)-1-methyl-1H-indole-6-sulfonamide], for which the IC50 was less than 10 nM.

For `COCc1ccc(-c2cc3ccc(S(=O)(=O)N[C@H]4CC[C@H](C(=O)N5CCOC[C@@H]5C5CC5)CC4)cc3[nH]2)cc1` [Example 455, N-((1S,4r)-4-((S)-3-cyclopropylmorpholine-4-carbonyl)cyclohexyl)-2-(4-(methoxymethyl)phenyl)-1H-indole-6-sulfonamide], the IC50 is less than 10 nM.

For `COCc1ccc(-c2cc3ccc(S(=O)(=O)N[C@H]4CC[C@H](C(=O)N5CCOC[C@@H]5C5CC5)CC4)cc3n2C)cc1` [Example 456, N-((1S,4r)-4-((S)-3-cyclopropylmorpholine-4-carbonyl)cyclohexyl)-2-(4-(methoxymethyl)phenyl)-1-methyl-1H-indole-6-sulfonamide], the half-maximal inhibitory concentration (IC50) is less than 10 nM.

With `COCCc1ccc(-c2cc3ccc(S(=O)(=O)N[C@H]4CC[C@H](C(=O)N5CCOC[C@@H]5C5CC5)CC4)cc3n2C)cc1` [Example 457, N-((1S,4r)-4-((S)-3-cyclopropylmorpholine-4-carbonyl)cyclohexyl)-2-(4-(2-methoxyethyl)phenyl)-1-methyl-1H-indole-6-sulfonamide], the half-inhibitory concentration (IC50) is less than 10 nM.

For `COCCc1ccc(-c2cc3ccc(S(=O)(=O)N[C@H]4CC[C@H](C(=O)N5CCOC[C@@H]5C(C)C)CC4)cc3[nH]2)cc1` [Example 460, N-((1S,4r)-4-((S)-3-isopropylmorpholine-4-carbonyl)cyclohexyl)-2-(4-(2-methoxyethyl)phenyl)-1H-indole-6-sulfonamide], the IC50 was less than 10 nM.

For `COCCc1ccc(-c2[nH]c3cc(S(=O)(=O)N[C@H]4CC[C@H](C(=O)N5CCOC[C@@H]5C(C)C)CC4)ccc3c2Cl)cc1` [Example 461, 3-chloro-N-((1S,4r)-4-((S)-3-isopropylmorpholine-4-carbonyl)cyclohexyl)-2-(4-(2-methoxyethyl)phenyl)-1H-indole-6-sulfonamide], the IC50 was less than 10 nM.

As for `C[C@H]1COCCN1C(=O)[C@H]1CC[C@H](NS(=O)(=O)c2ccc3cc(-c4ccccc4)[nH]c3c2)CC1` [Example 462, N-((1S,4r)-4-((S)-3-methylmorpholine-4-carbonyl)cyclohexyl)-2-phenyl-1H-indole-6-sulfonamide], the IC50 amounted to 15 nM.

Turning to `CC(C)[C@H]1COCCN1C(=O)[C@H]1CC[C@H](NS(=O)(=O)c2ccc3cc(-c4ccccc4)[nH]c3c2)CC1` [Example 463, N-((1S,4r)-4-((S)-3-isopropylmorpholine-4-carbonyl)cyclohexyl)-2-phenyl-1H-indole-6-sulfonamide], the IC50 is less than 10 nM.

As to `CC1(C)CN(C(=O)[C@H]2CC[C@H](NS(=O)(=O)c3ccc4cc(-c5ccccc5)[nH]c4c3)CC2)CCO1` [Example 464, N-((1r,4r)-4-(2,2-dimethylmorpholine-4-carbonyl)cyclohexyl)-2-phenyl-1H-indole-6-sulfonamide], the 50% inhibitory concentration (IC50) turned out to be 30 nM.

For the compound `CC(C)(O)[C@H]1CCCN1C(=O)[C@H]1CC[C@H](NS(=O)(=O)c2ccc3cc(-c4ccccc4)[nH]c3c2)CC1` [Example 465, N-((1R,4r)-4-((R)-2-(2-hydroxypropan-2-yl)pyrrolidine-1-carbonyl)cyclohexyl)-2-phenyl-1H-indole-6-sulfonamide], the IC50 amounted to 20 nM.

For the compound `O=C1NCCCCC1NC(=O)[C@H]1CC[C@H](NS(=O)(=O)c2ccc3cc(-c4ccccc4)[nH]c3c2)CC1` (stereo partly drawn) [Example 466, (1r,4r)-N-(2-oxoazepan-3-yl)-4-(2-phenyl-1H-indole-6-sulfonamido)cyclohexanecarboxamide], the 50% inhibitory concentration (IC50) came out at 10 nM.

For `C[C@H]1COCCN1C(=O)[C@H]1CC[C@H](NS(=O)(=O)c2ccc3c(Cl)c(-c4ccccc4)[nH]c3c2)CC1` [Example 467, 3-chloro-N-((1S,4r)-4-((S)-3-methylmorpholine-4-carbonyl)cyclohexyl)-2-phenyl-1H-indole-6-sulfonamide], the IC50 is less than 10 nM.

With `CC(C)[C@H]1COCCN1C(=O)[C@H]1CC[C@H](NS(=O)(=O)c2ccc3c(Cl)c(-c4ccccc4)[nH]c3c2)CC1` [Example 468, 3-chloro-N-((1S,4r)-4-((S)-3-isopropylmorpholine-4-carbonyl)cyclohexyl)-2-phenyl-1H-indole-6-sulfonamide], the IC50 was less than 10 nM.

For the compound `CC1(C)CN(C(=O)[C@H]2CC[C@H](NS(=O)(=O)c3ccc4c(Cl)c(-c5ccccc5)[nH]c4c3)CC2)CCO1` [Example 469, 3-chloro-N-((1r,4r)-4-(2,2-dimethylmorpholine-4-carbonyl)cyclohexyl)-2-phenyl-1H-indole-6-sulfonamide], the IC50 amounted to 90 nM.

On to `COCCc1ccc(-c2cc3ccc(S(=O)(=O)N[C@H]4CC[C@H](C(=O)N5CCOC[C@@H]5C5CC5)CC4)cc3[nH]2)cc1` [Example 470, N-((1S,4r)-4-((S)-3-cyclopropylmorpholine-4-carbonyl)cyclohexyl)-2-(4-(2-methoxyethyl)phenyl)-1H-indole-6-sulfonamide], for which the IC50 was less than 10 nM.

In the case of `COCCc1ccc(-c2[nH]c3cc(S(=O)(=O)N[C@H]4CC[C@H](C(=O)N5CCOC[C@@H]5C5CC5)CC4)ccc3c2Cl)cc1` [Example 471, 3-chloro-N-((1S,4r)-4-((S)-3-cyclopropylmorpholine-4-carbonyl)cyclohexyl)-2-(4-(2-methoxyethyl)phenyl)-1H-indole-6-sulfonamide], the IC50 was less than 10 nM.

In the case of `O=C([C@H]1CC[C@H](NS(=O)(=O)c2ccc3cc(-c4ccccc4)[nH]c3c2)CC1)N1CCOC[C@@H]1C1CC1` [Example 472, N-((1S,4r)-4-((S)-3-cyclopropylmorpholine-4-carbonyl)cyclohexyl)-2-phenyl-1H-indole-6-sulfonamide], the concentration for half-maximal inhibition (IC50) was less than 10 nM.

On to `C[C@@H]1CN(C(=O)[C@H]2CC[C@H](NS(=O)(=O)c3ccc4cc(-c5ccccc5)[nH]c4c3)CC2)C[C@H](C)O1` [Example 475, N-((1R,4r)-4-((2S,6R)-2,6-dimethylmorpholine-4-carbonyl)cyclohexyl)-2-phenyl-1H-indole-6-sulfonamide], for which the IC50 is 15 nM.
